For data set [1], the system named is horses suffering from acute laminitis. Nature of the data set: Treatment of horses suffering from laminitis with allopurinol (case reports). Format: in vivo, horse. The note with it: oral allopurinol 1 to 50 mg/kg of body weight. The text has this: Thus there are also positive effects on the general condition. […] Only by treating with allopurinol is it possible to carry out this treatment as horses suffering acute pain cannot be fitted with supports.

For data set [2] the following is noted: horses, cited from earlier work.

As for `Oc1ncnc2[nH]ncc12` [allopurinol], in data set [1], the “appetite / general condition” value was “appetite returns”, the inflammation result is “decline after three days' treatment”, the lameness result was “reduced” and the pain entry is recorded as “decline after three days' treatment”. Besides, the “time until horses can be fitted with an orthopaedic hoof support” value in data set [1] (time after the start of treatment) is on record as “roughly one week after the start of treatment”. Moreover, the “bioavailability after oral administration” value in data set [2] (oral administration) is 14.3%. Also, the “sum of the areas under the concentration/time curves of allopurinol and oxypurinol after oral administration of allopurinol” value in data set [2] (oral versus intravenous allopurinol) is given as “identical to that of allopurinol administered intravenously”.

(Values after patent US20100190805A1, “PREPARATION FOR THE TREATMENT OF EQUINE LAMINITIS” (BOEHRINGER INGELHEIM VETMEDICA GMBH, priority 2007, published 2010).)
